pEC50: −log10 of the molar value.
Key:
[1] = tested on: Sprague Dawley rats, 6-OHDA lesion; test: Unbiased stereology of TH-positive neurons in SNc (study 2); assay type: in vivo, rat; conditions: more severe (40%) lesion
Method: Rats were treated with 2LS98Lac or saline (vehicle) as outlined in the Schemes in Figures 9A,B via intraperitoneal (i.p.) injection (15 mg/kg). All animals were made hemi-parkinsonian with unilateral, striatal 6-hydroxydopamine (Sigma Aldrich, St. Louis, MO) injections. After surgery, behavioral assessments were done at 2- and 4-weeks post-surgery. 24 h after the last test animals were either euthanized and whole brains were harvested for future biochemical analysis or perfused and brains collected for immunohistochemistry and stereological assessment of tyrosine hydroxylase-positive (TH+) cells remaining in the SNc. In study 1: n = 16 each group were included, and all underwent the behavioral analysis: n = 16, and for the stereology in the SNc, n = 8 each group was used. In study 2: n = 23 each group were included. […]
Stereological probes were applied using a Zeiss Imager M2 microscope (Carl Zeiss, Jena, Germany) equipped with StereoInvestigator software (MBF Bioscience, VT, United States) according to previously published methods ([Corenblum et al., 2015]; [Anandhan et al., 2021]). Using the optical fractionator probe, cells were counted under the ×63 oil immersion objective by a blinded observer. TH+ cells were counted in sections 480 μm apart using a grid size of 170 × 100 μm and counting frame size of 75 × 75 μm. […]

[2] = molecular target: T1, human PAC1 receptor (Homo sapiens, UniProt P41586); test: cAMP stimulation in CHO cells expressing PAC1; assay type: cell-based
T1 construct: expressed in transfected cells; host or cells: CHO cells (G418 selection)
T1 sequence (P41586 21-468): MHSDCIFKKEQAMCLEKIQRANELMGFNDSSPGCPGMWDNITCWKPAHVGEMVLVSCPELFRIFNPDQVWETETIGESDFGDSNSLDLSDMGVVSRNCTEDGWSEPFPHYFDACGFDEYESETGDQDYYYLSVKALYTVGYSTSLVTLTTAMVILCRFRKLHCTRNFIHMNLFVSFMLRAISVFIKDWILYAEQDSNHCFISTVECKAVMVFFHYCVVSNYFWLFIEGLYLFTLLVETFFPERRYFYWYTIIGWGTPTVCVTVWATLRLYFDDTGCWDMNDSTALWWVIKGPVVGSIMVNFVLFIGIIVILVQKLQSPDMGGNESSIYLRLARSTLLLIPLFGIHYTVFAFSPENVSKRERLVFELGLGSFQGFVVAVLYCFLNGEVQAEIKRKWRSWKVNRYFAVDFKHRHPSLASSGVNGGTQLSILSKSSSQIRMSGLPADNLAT
Outline: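 Serum-starved CHO cells expressing human receptors were pre-treated 20 min with 500 μM IBMX, then exposed to agonist concentration curves for 10 min in 500 μM IBMX. cAMP quantified by competition with bovine PKA and ^3H-cAMP (1 h, room temperature), scintillation read.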

## [2H]C([2H])([2H])C([2H])(C([2H])([2H])[2H])[C@]([2H])(NC(=O)[C@H](C)NC(=O)[C@H](C)NC(=O)[C@H](CC(C)C)NC(=O)[C@H](Cc1ccc(O)cc1)NC(=O)[C@H](CCCCN)NC(=O)[C@H](CCCCN)NC(=O)[C@@]([2H])(NC(=O)[C@H](C)NC(=O)[C@H](CC(C)C)NC(=O)[C@H](CCC(N)=O)NC(=O)[C@H](CCCCN)NC(=O)[C@H](CCCNC(=N)N)NC(=O)[C@H](Cc1ccc(O)cc1)NC(=O)[C@H](CCCNC(=N)N)NC(=O)[C@H](CO)NC(=O)[C@H](Cc1ccc(O)cc1)NC(=O)[C@H](CO)NC(=O)[C@H](CC(=O)O)NC(=O)[C@@H](NC(=O)[C@H](Cc1ccccc1)NC(=O)[C@@H](NC(=O)CNC(=O)[C@H](CC(=O)O)NC(=O)[C@H](CO)NC(=O)[C@@H](N)Cc1c[nH]cn1)[C@@H](C)CC)[C@@H](C)O)C([2H])(C([2H])([2H])[2H])C([2H])([2H])[2H])C(=O)N[C@@H](CC(C)C)C(=O)N[C@@H](CO[C@@H]1O[C@H](CO)[C@@H](O[C@@H]2O[C@H](CO)[C@H](O)[C@H](O)[C@H]2O)[C@H](O)[C@H]1O)C(N)=O [Compound 2LS98Lac]
[1]; not significant (p = 0.2208)
  Mean increase of nigral TH cells on the lesioned side vs vehicle: 850 cells
[1]; three injections 15 mg/kg i.p., mean, vehicle 8,391
  Nigral TH-cell count on the lesioned side: 9,244 cells
[2]
  pEC50: 9.14
[2]; CHO
  Emax: 93%

Reference: article PMC8887546, “Design and Synthesis of Brain Penetrant Glycopeptide Analogues of PACAP With Neuroprotective Potential for Traumatic Brain Injury and Parkinsonism” (Frontiers in drug discovery, 2022)
